Laboratory results taken from ChEMBL document CHEMBL4421722, “Inhibitors of protein prenyltransferases” (2013).

Species on record: Rattus norvegicus
Assay: Inhibition of rat recombinant geranylgeranyltransferase type I expressed in Escherichia coli assessed as residual enzyme activity for geranylgeranylation of K-Ras4B at 50 uM incubated for 30 mins in presence of [3H]GGPP by scintillation counting assay relative to control

| Activity [%] | Compound |
| --- | --- |
| 72.9 | CCS[C@@H]1C[C@@H](c2ccc(OC)cc2)N(S(=O)(=O)c2ccc(Cl)cc2)C[C@H]1C(=O)O |
| 58.7 | CCOc1ccc([C@@H]2CC=C(C(=O)O)[C@H](c3ccc(C(C)(C)C)cc3)N2S(=O)(=O)c2ccc(C)cc2)cc1 |
| 87.5 | Cc1ccc([C@H]2C(C(=O)O)=CC[C@@H](c3ccccc3)N2S(=O)(=O)c2ccc(C)cc2)cc1 |
| 65.3 | CCOc1ccc([C@@H]2CC=C(C(=O)O)[C@H](c3cccc(C)c3)N2S(=O)(=O)c2ccc(C)cc2)cc1 |
| 105 | CC(=O)C1=CC[C@@H](c2cccc(Br)c2)N(S(=O)(=O)c2ccc(C)cc2)C1 |
| 62.7 | Cc1ccc(S(=O)(=O)N2[C@@H](c3ccc(F)cc3)C(C(=O)O)=CC[C@H]2c2cccc(Br)c2)cc1 |
| 58.3 | CCS[C@@H]1C[C@@H](c2ccc(C)cc2)N(S(=O)(=O)c2ccc(Cl)cc2)C[C@H]1C(=O)O |
| 74.3 | Cc1ccc(S(=O)(=O)N2[C@@H](c3ccc(C(C)(C)C)cc3)C(C(=O)O)=CC[C@H]2c2ccc(Cl)c(Cl)c2)cc1 |
| 109 | C=CCS[C@@H]1C[C@@H](c2cc(OC)c(OC)c(OC)c2)N(S(=O)(=O)c2ccc(C)cc2)C[C@H]1C(=O)O |
| 79.6 | COc1ccc([C@@H]2C[C@@H](Sc3ccccc3)[C@H](C(=O)O)CN2S(=O)(=O)c2ccc(C)cc2)cc1 |
| 53.6 | CS(=O)(=O)N1[C@@H](c2ccc(Br)cc2)C(C(=O)O)=CC[C@H]1c1ccc(Cl)cc1 |
| 53.3 | CCCS[C@@H]1C[C@@H](c2ccc(Cl)cc2)N(S(=O)(=O)c2ccccc2C)C[C@H]1C(=O)O |
| 89.8 | CCc1ccc([C@@H]2CC=C(C(=O)O)[C@H](c3ccc(Cl)cc3)N2S(=O)(=O)c2ccc(C)cc2)cc1 |
| 83.2 | COc1ccc([C@@H]2CC=C(C(=O)O)[C@H](c3ccc(Cl)cc3)N2S(=O)(=O)c2ccc(C)cc2)cc1OC |
| 84.2 | Cc1ccc(S(=O)(=O)N2[C@@H](c3ccc(C(C)(C)C)cc3)C(C(=O)O)=CC[C@H]2c2ccccc2F)cc1 |
| 101 | COc1ccc(S[C@@H]2C[C@@H](c3ccc(OC)c(OC)c3)N(S(=O)(=O)c3ccc(C)cc3)C[C@H]2C(=O)O)cc1 |
| 64.4 | CCc1ccc([C@@H]2C[C@@H](SCc3ccc(C(C)(C)C)cc3)[C@H](C(=O)O)CN2S(=O)(=O)c2ccc(C)cc2)cc1 |
| 114 | CCCCS[C@@H]1C[C@@H](c2ccc(OC)c(OC)c2)N(S(=O)(=O)c2ccc(C)cc2)C[C@H]1C(=O)O |
| 90.4 | Cc1ccc([C@H]2C(C(=O)O)=CC[C@@H](c3ccccc3)N2S(C)(=O)=O)cc1 |
| 60.4 | Cc1ccc(S(=O)(=O)N2[C@@H](c3ccc(Cl)cc3)C(C(=O)O)=CC[C@H]2c2cccc(Cl)c2)cc1 |
| 74.7 | Cc1ccc(S(=O)(=O)N2[C@@H](c3ccc(Cl)cc3)C(C(=O)O)=CC[C@H]2c2cccc(C)c2)cc1 |
| 56.1 | Cc1ccc(S(=O)(=O)N2[C@@H](c3ccc(C(C)(C)C)cc3)C(C(=O)O)=CC[C@H]2c2cccc(C)c2)cc1 |
| 89.3 | COc1ccc([C@@H]2CC=C(C(=O)O)[C@H](c3ccc(C)cc3)N2S(=O)(=O)c2ccc(C)cc2)cc1OC |
| 82.7 | CCS[C@@H]1C[C@@H](c2cccc(Br)c2)N(S(=O)(=O)c2ccc(C)cc2)C[C@H]1C(=O)O |
| 90.3 | CC(=O)C1=CC[C@@H](c2cccs2)N(S(=O)(=O)c2ccc(C)cc2)C1 |
| 54.2 | COC(=O)c1ccccc1S(=O)(=O)N1[C@@H](c2cccc(C)c2)C(C(=O)O)=CC[C@H]1c1ccc(C)cc1 |

| Activity [%] | Compound |
| --- | --- |
| 94.8 | CCCCCS[C@@H]1C[C@@H](c2ccc(OC)cc2)N(S(=O)(=O)c2ccccc2)C[C@H]1C(=O)O |
| 92.3 | COc1cc([C@@H]2CC=C(C(C)=O)CN2S(=O)(=O)c2ccc(C)cc2)cc(OC)c1OC |
| 55 | CCc1ccc([C@@H]2CC=C(C(=O)O)[C@H](c3cccc(F)c3)N2S(=O)(=O)c2ccc(C)cc2)cc1 |
| 68.2 | Cc1ccc(S(=O)(=O)N2[C@@H](c3ccc(F)cc3)C(C(=O)O)=CC[C@H]2c2ccc3c(c2)OCO3)cc1 |
| 92.9 | Cc1ccc([C@H]2C(C(=O)O)=CC[C@@H](c3ccccc3F)N2S(=O)(=O)c2ccc(C)cc2)cc1 |
| 90.8 | CCc1ccc([C@@H]2C[C@@H](Sc3ccc(OC)cc3)[C@H](C(=O)O)CN2S(=O)(=O)c2ccc(C)cc2)cc1 |
| 53 | COc1ccc([C@@H]2C[C@@H](SCc3ccc(C(C)(C)C)cc3)[C@H](C(=O)O)CN2S(=O)(=O)c2ccccc2)cc1 |
| 73.5 | CCCCS[C@@H]1C[C@@H](c2cc(OC)c(OC)c(OC)c2)N(S(=O)(=O)c2ccc(C)cc2)C[C@H]1C(=O)O |
| 67.1 | CCCCCS[C@@H]1C[C@@H](c2ccc(OC)cc2)N(S(=O)(=O)c2ccccc2C)C[C@H]1C(=O)O |
| 81.8 | CCCCCS[C@@H]1C[C@@H](c2cc(OC)c(OC)c(OC)c2)N(S(=O)(=O)c2ccc(C)cc2)C[C@H]1C(=O)O |
| 89.3 | COc1ccc([C@@H]2CC=C(C(=O)O)[C@H](c3cccc(Cl)c3)N2S(=O)(=O)c2ccc(C)cc2)cc1 |
| 90.5 | COc1ccc(S[C@@H]2C[C@@H](c3ccc(OC)cc3)N(S(=O)(=O)c3ccccc3)C[C@H]2C(=O)O)cc1 |
| 65.1 | C=CCS[C@@H]1C[C@@H](c2ccc(OC)cc2)N(S(=O)(=O)c2ccccc2C)C[C@H]1C(=O)O |
| 69.9 | CS(=O)(=O)N1[C@@H](c2cccc(F)c2)C(C(=O)O)=CC[C@H]1c1ccc(Cl)cc1 |
| 78.9 | CCOc1ccc([C@@H]2CC=C(C(=O)O)[C@H](c3cccc(Cl)c3)N2S(=O)(=O)c2ccc(C)cc2)cc1 |
| 100 | Cc1ccc([C@@H]2C[C@@H](SC3CCCC3)[C@H](C(=O)O)CN2S(=O)(=O)c2ccccc2)cc1 |
| 100 | COc1ccc(S[C@@H]2C[C@@H](c3ccccc3F)N(S(=O)(=O)c3ccc(C)cc3)C[C@H]2C(=O)O)cc1 |
| 73.6 | CCc1ccc([C@@H]2CC=C(C(=O)O)[C@H](c3cccc(Cl)c3)N2S(=O)(=O)c2ccc(C)cc2)cc1 |
| 82.2 | COc1ccc([C@@H]2CC=C(C(=O)O)[C@H](c3ccc(C(C)(C)C)cc3)N2S(=O)(=O)c2ccccc2)cc1 |
| 75.8 | CCCCCS[C@@H]1C[C@@H](c2ccc(C)cc2)N(S(=O)(=O)c2ccc(Cl)cc2)C[C@H]1C(=O)O |
| 79.3 | COc1ccc([C@@H]2C[C@@H](SCC(C)C)[C@H](C(=O)O)CN2S(=O)(=O)c2ccc(C)cc2)cc1 |
| 93.3 | COc1ccc(S[C@@H]2C[C@@H](c3cccc(Cl)c3)N(S(=O)(=O)c3ccc(C)cc3)C[C@H]2C(=O)O)cc1 |
| 107 | COc1ccc([C@@H]2C[C@@H](Sc3ccc(Cl)cc3)[C@H](C(=O)O)CN2S(=O)(=O)c2ccc(C)cc2)cc1OC |
| 79.9 | Cc1ccc([C@@H]2CC=C(C(=O)O)[C@H](c3ccc(Cl)cc3)N2S(=O)(=O)c2ccccc2)cc1 |
| 86 | COc1ccc([C@@H]2CC=C(C(=O)O)[C@H](c3ccc(C)cc3)N2S(=O)(=O)c2ccccc2C)cc1 |
| 55.9 | Cc1ccc(S(=O)(=O)N2C[C@@H](C(=O)O)[C@H](SCc3ccc(C(C)(C)C)cc3)C[C@H]2c2ccccc2)cc1 |

| Activity [%] | Compound |
| --- | --- |
| 56 | Cc1ccc([C@@H]2CC=C(C(=O)O)[C@H](c3cccc(C)c3)N2S(C)(=O)=O)cc1 |
| 92.4 | Cc1ccc(S[C@@H]2C[C@@H](c3ccc(C)cc3)N(S(=O)(=O)c3ccccc3C)C[C@H]2C(=O)O)cc1 |
| 75.3 | CCCCCCS[C@@H]1C[C@@H](c2ccccc2F)N(S(=O)(=O)c2ccc(C)cc2)C[C@H]1C(=O)O |
| 55.3 | COc1cccc([C@@H]2CC=C(C(=O)O)[C@H](c3cccc(Br)c3)N2S(=O)(=O)c2ccc(C)cc2)c1 |
| 66 | Cc1ccc(S(=O)(=O)N2[C@@H](c3cccc(C)c3)C(C(=O)O)=CC[C@H]2c2ccc(Cl)cc2)cc1 |
| 88.8 | Cc1ccc(S[C@@H]2C[C@@H](c3cccc(Cl)c3)N(S(=O)(=O)c3ccc(C)cc3)C[C@H]2C(=O)O)cc1 |
| 87.5 | CCCCS[C@@H]1C[C@@H](c2ccc(Cl)cc2)N(S(=O)(=O)c2ccccc2C)C[C@H]1C(=O)O |
| 84.8 | COc1ccc([C@@H]2C[C@@H](Sc3ccccc3)[C@H](C(=O)O)CN2S(=O)(=O)c2ccccc2C)cc1 |
| 66 | CCCCS[C@@H]1C[C@@H](c2ccc(OCC)cc2)N(S(=O)(=O)c2ccc(C)cc2)C[C@H]1C(=O)O |
| 79.7 | Cc1ccc(S(=O)(=O)N2C[C@@H](C(=O)O)[C@H](SCC(C)C)C[C@H]2c2cccc(Cl)c2)cc1 |
| 33.9 | COc1ccc([C@@H]2C[C@@H](SCc3ccccc3)[C@H](C(=O)O)CN2S(=O)(=O)c2ccccc2C)cc1 |
| 75.1 | Cc1ccc(S(=O)(=O)N2[C@@H](c3cccc(Br)c3)C(C(=O)O)=CC[C@H]2c2ccc3c(c2)OCO3)cc1 |
| 46 | CCOc1ccc([C@@H]2C[C@@H](SCc3ccc(C(C)(C)C)cc3)[C@H](C(=O)O)CN2S(=O)(=O)c2ccc(C)cc2)cc1 |
| 85.1 | Cc1ccc(S(=O)(=O)N2[C@@H](c3ccc(C(C)(C)C)cc3)C(C(=O)O)=CC[C@H]2c2ccc(F)cc2)cc1 |
| 55.2 | CCc1ccc([C@@H]2CC=C(C(=O)O)[C@H](c3ccc(F)cc3)N2S(=O)(=O)c2ccc(C)cc2)cc1 |
| 83.6 | CCCS[C@@H]1C[C@@H](c2ccc3c(c2)OCO3)N(S(=O)(=O)c2ccc(C)cc2)C[C@H]1C(=O)O |
| 88.8 | Cc1ccc(S(=O)(=O)N2C[C@@H](C(=O)O)[C@H](Sc3ccc(Cl)cc3)C[C@H]2c2ccccc2F)cc1 |
| 65.9 | Cc1ccc(S(=O)(=O)N2[C@@H](c3cccc(Br)c3)C(C(=O)O)=CC[C@H]2c2ccccc2)cc1 |
| 100 | CCCS[C@@H]1C[C@@H](c2ccc(C)cc2)N(S(=O)(=O)c2ccccc2)C[C@H]1C(=O)O |
| 72.6 | COc1ccc([C@@H]2CC=C(C(=O)O)[C@H](c3cccc(C)c3)N2S(=O)(=O)c2ccccc2)cc1 |
| 87.7 | Cc1ccc(S(=O)(=O)N2[C@@H](c3ccc(C(C)(C)C)cc3)C(C(=O)O)=CC[C@H]2c2ccc(C#N)cc2)cc1 |
| 66.3 | CCCCCCS[C@@H]1C[C@@H](c2ccc(Cl)cc2)N(S(=O)(=O)c2ccccc2C)C[C@H]1C(=O)O |
| 91.8 | COc1ccc([C@@H]2C[C@@H](Sc3ccc(C)cc3)[C@H](C(=O)O)CN2S(=O)(=O)c2ccc(C)cc2)cc1 |
| 73.4 | Cc1ccc([C@H]2C(C(=O)O)=CC[C@@H](c3cccs3)N2S(=O)(=O)c2ccc(C)cc2)cc1 |
